Reference: patent US20210009564A1, “CALPAIN MODULATORS AND THERAPEUTIC USES THEREOF” (BLADE THERAPERTICS, INC., priority 2018, published 2021)

Legend:
[1] = biological target: T1, Human Calpain 2/NS1 (Homo sapiens, UniProt P17655); test: Calpain inhibition, continuous fluorescence (FRET substrate) assay, calpain 2; type: biochemical; conditions: SensoLyte 520 FRET substrate, 25C
T1 sequence (P17655 1-700): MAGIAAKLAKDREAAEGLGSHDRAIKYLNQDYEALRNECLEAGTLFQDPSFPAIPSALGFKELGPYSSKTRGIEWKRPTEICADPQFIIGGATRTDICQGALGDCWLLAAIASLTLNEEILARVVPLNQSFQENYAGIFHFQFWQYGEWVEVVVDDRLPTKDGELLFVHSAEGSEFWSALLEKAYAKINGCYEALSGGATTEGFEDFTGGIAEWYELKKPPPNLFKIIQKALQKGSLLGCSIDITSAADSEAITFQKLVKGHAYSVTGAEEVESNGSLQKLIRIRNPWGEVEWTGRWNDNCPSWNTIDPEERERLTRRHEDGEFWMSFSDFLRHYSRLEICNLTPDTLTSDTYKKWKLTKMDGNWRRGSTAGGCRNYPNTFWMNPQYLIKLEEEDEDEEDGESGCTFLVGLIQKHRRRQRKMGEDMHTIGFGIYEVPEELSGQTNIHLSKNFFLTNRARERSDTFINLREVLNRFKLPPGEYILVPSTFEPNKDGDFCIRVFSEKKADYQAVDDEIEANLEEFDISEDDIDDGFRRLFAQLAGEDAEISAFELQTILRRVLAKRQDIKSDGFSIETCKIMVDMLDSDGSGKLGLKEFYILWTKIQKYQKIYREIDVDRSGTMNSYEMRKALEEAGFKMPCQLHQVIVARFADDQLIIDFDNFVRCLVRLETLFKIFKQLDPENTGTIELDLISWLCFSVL
T1 sequence (P04632 1-268 partner): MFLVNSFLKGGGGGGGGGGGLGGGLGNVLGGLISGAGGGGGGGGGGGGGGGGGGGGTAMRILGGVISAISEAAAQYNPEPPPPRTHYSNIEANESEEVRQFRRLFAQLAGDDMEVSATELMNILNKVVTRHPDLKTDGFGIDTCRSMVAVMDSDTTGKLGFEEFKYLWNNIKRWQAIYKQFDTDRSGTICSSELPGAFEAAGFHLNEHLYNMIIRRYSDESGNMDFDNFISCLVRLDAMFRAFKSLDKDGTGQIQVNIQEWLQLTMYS
Procedure, shortened: (§1)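 Calpains preincubated with serially diluted inhibitors at 25 °C in 50 mM Tris pH 7.5, 100 mM NaCl, 1 mM DTT; CaCl2 plus 5-FAM/QXL 520 FRET substrate started the reaction. Fluorescence (490/520 nm) read 10 min; rates from 1-5 min slopes, IC50 from 4-parameter logistic fit.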

[2] = system: Calpain activity in SH-SY5Y cells; test: SH-SY5Y Suc-LLVY-AMC fluorescence assay; type: cell-based; conditions: Homo sapiens, read-out: SH-SY5Y + AMC IC50
[3] = system: Calpain activity in SH-SY5Y cells; test: SH-SY5Y spectrin breakdown product (SBDP-150) western blot assay; type: cell-based; conditions: Homo sapiens, read-out: SH-SY5Y Spectrin IC50
[4] = biological target: T2, Human Calpain 9/NS1 (Homo sapiens, UniProt O14815); test: Calpain inhibition, continuous fluorescence (FRET substrate) assay, calpain 9; type: biochemical; conditions: SensoLyte 520 FRET substrate, 25C
T2 sequence (O14815 1-690): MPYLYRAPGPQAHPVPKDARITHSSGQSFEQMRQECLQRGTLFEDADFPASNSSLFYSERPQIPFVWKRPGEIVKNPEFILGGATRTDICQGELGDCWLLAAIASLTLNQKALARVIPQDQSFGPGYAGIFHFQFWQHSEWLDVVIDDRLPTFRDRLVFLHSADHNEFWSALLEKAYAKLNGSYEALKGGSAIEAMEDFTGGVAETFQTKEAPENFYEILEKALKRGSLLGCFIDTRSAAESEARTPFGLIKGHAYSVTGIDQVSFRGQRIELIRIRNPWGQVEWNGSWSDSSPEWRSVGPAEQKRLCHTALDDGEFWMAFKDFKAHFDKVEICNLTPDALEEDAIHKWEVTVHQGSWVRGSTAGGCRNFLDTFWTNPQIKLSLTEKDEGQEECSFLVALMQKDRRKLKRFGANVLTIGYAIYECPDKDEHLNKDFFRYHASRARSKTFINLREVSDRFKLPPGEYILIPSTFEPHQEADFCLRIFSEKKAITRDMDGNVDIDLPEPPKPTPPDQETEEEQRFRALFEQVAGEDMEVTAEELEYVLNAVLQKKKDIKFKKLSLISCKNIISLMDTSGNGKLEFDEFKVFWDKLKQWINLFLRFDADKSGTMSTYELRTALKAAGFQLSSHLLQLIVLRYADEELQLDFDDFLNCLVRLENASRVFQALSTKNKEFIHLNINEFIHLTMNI
T2 sequence (P04632 1-268 partner): T1 sequence (P04632 1-268 partner)
Procedure, shortened: as §1

[5] = biological target: T3, Human Calpain 1/NS1 (Homo sapiens, UniProt P07384); test: Calpain inhibition, continuous fluorescence (FRET substrate) assay, calpain 1; type: biochemical; conditions: SensoLyte 520 FRET substrate, 25C
T3 sequence (P07384 1-714): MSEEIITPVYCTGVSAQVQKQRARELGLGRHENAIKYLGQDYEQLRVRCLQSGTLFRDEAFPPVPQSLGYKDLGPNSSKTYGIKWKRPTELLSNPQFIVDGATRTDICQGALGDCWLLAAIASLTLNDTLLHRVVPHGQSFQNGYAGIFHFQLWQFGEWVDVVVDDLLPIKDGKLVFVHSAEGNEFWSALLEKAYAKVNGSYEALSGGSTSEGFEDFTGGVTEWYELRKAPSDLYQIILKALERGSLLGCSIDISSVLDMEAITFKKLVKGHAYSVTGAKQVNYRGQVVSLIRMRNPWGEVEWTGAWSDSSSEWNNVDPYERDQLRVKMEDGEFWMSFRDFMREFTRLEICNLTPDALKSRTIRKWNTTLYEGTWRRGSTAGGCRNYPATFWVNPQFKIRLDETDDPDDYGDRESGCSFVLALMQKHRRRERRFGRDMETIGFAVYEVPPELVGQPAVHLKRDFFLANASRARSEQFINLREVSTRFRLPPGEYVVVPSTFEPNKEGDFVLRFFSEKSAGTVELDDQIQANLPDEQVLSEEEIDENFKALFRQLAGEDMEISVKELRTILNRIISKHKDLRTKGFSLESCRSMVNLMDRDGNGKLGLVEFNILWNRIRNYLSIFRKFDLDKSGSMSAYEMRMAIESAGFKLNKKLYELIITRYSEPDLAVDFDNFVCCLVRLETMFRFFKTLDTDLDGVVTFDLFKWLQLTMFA
T3 sequence (P04632 1-268 partner): T1 sequence (P04632 1-268 partner)
Procedure, shortened: as §1

[6] = SH-SY5Y cells, 100 uM Suc-LLVY-AMC
[7] = SH-SY5Y cells, 25 uM A23187, SBDP-150 western blot

IC50 [1] | IC50 [2, 6] | IC50 [3, 7] | IC50 [4] | IC50 [5] | Compound | IC50 ([2]; SH-SY5Y) | IC50 ([3]; SH-SY5Y)
< 3 µM | > 25 µM | > 25 µM | < 3 µM | < 3 µM | Cn1cc(C(=O)NC(Cc2ccccc2)C(=O)C(N)=O)c(-c2cccc3cn(C)nc23)n1 (stereo not drawn) [Compound 99, N-(4-AMINO-3,4-DIOXO-1-PHENYLBUTAN-2-YL)-1-METHYL-3-(2-METHYL-2H-INDAZOL-7-YL)-1H-PYRAZOLE-4-CARBOXAMIDE] |  | 
< 3 µM | < 10 µM | < 10 µM | < 3 µM | < 3 µM | NC(=O)C(=O)C(Cc1ccccc1)NC(=O)c1cn(C(F)F)nc1-c1cccc2ccncc12 (stereo not drawn) [Compound 22, N-(4-AMINO-3,4-DIOXO-1-PHENYLBUTAN-2-YL)-1-(DIFLUOROMETHYL)-3-(ISOQUINOLIN-8-YL)-1H-PYRAZOLE-4-CARBOXAMIDE] |  | 
< 3 µM | < 10 µM | < 10 µM | < 3 µM | < 3 µM | Cc1nc(-c2cccc3ccccc23)c(C(=O)NC(Cc2ccccc2)C(=O)C(N)=O)o1 (stereo not drawn) [Compound 58, N-(4-AMINO-3,4-DIOXO-1-PHENYLBUTAN-2-YL)-2-METHYL-4-(NAPHTHALEN-1-YL)OXAZOLE-5-CARBOXAMIDE] |  | 
< 3 µM | < 10 µM | < 10 µM | < 3 µM | < 3 µM | Cn1cc(C(=O)NC(Cc2ccccc2)C(=O)C(N)=O)c(-c2cccc3ncsc23)n1 (stereo not drawn) [Compound 6, N-(4-AMINO-3,4-DIOXO-1-PHENYLBUTAN-2-YL)-3-(BENZO[D]THIAZOL-7-YL)-1-METHYL-1H-PYRAZOLE-4-CARBOXAMIDE] |  | 
< 3 µM | < 10 µM | > 25 µM | < 3 µM | < 3 µM | NC(=O)C(=O)C(Cc1ccccc1)NC(=O)c1cn(C(F)F)nc1-c1nccc2ccccc12 (stereo not drawn) [Compound 4, N-(4-AMINO-3,4-DIOXO-1-PHENYLBUTAN-2-YL)-1-(DIFLUOROMETHYL)-3-(ISOQUINOLIN-1-YL)-1H-PYRAZOLE-4-CARBOXAMIDE] |  | 
< 3 µM | > 25 µM | > 25 µM | < 3 µM | < 3 µM | Cn1cc(C(=O)NC(Cc2ccccc2)C(=O)C(N)=O)c(-c2cccc3cccnc23)n1 (stereo not drawn) [Compound 14] |  | 
< 3 µM | < 10 µM | 10 to 25 µM | < 3 µM | < 3 µM | NC(=O)C(=O)C(Cc1ccccc1)NC(=O)c1cn(C(F)F)nc1-c1ncnc2ccccc12 (stereo not drawn) [Compound 63, N-(4-AMINO-3,4-DIOXO-1-PHENYLBUTAN-2-YL)-1-(DIFLUOROMETHYL)-3-(QUINAZOLIN-4-YL)-1H-PYRAZOLE-4-CARBOXAMIDE] |  | 
< 3 µM | > 25 µM | 10 to 25 µM | < 3 µM | < 3 µM | Cn1cc(C(=O)NC(Cc2ccccc2)C(=O)C(N)=O)c(-c2cccc3scnc23)n1 (stereo not drawn) [Compound 51, N-(4-AMINO-3,4-DIOXO-1-PHENYLBUTAN-2-YL)-3-(BENZO[D]THIAZOL-4-YL)-1-METHYL-1H-PYRAZOLE-4-CARBOXAMIDE] |  | 

Second part, the molecule before the results:

Compound | IC50 [1] | IC50 [2, 6] | IC50 [3, 7] | IC50 [4] | IC50 [5] | IC50 ([2]; SH-SY5Y) | IC50 ([3]; SH-SY5Y)
Cn1cc(C(=O)NC(Cc2ccc(C(F)(F)F)cc2)C(=O)C(N)=O)c(-c2ccccc2F)n1 (stereo not drawn) [Compound 95, N-(4-AMINO-3,4-DIOXO-1-(4-(TRIFLUOROMETHYL)PHENYL)BUTAN-2-YL)-3-(2-FLUOROPHENYL)-1-METHYL-1H-PYRAZOLE-4-CARBOXAMIDE] | < 3 µM | > 25 µM | 10 to 25 µM | < 3 µM | < 3 µM |  | 
Cc1nc(-c2ccccc2F)c(C(=O)NC(Cc2ccccc2)C(=O)C(=O)O)o1 (stereo not drawn) [Compound 64, 3-(4-(2-FLUOROPHENYL)-2-METHYLOXAZOLE-5-CARBOXAMIDO)-2-OXO-4-PHENYLBUTANOIC ACID] | < 3 µM | < 10 µM | > 25 µM | < 3 µM | < 3 µM |  | 
Cc1nc(-c2ccccc2F)c(C(=O)NC(Cc2cccc(Cl)c2)C(=O)C(N)=O)o1 (stereo not drawn) [Compound 89, N-(4-AMINO-1-(3-CHLOROPHENYL)-3,4-DIOXOBUTAN-2-YL)-4-(2-FLUOROPHENYL)-2-METHYLOXAZOLE-5-CARBOXAMIDE] | < 3 µM | < 10 µM | < 10 µM | < 3 µM | < 3 µM |  | 
N#CC(Cc1ccccc1)NC(=O)c1nsnc1-c1ccccc1 (stereo not drawn) [Compound 82, N-(1-CYANO-2-PHENYLETHYL)-4-PHENYL-1,2,5-THIADIAZOLE-3-CARBOXAMIDE] | > 10 µM | > 25 µM | > 25 µM | > 10 µM | > 10 µM |  | 
Cc1nc(-c2ccoc2C)c(C(=O)NC(Cc2ccccc2)C(=O)C(N)=O)o1 (stereo not drawn) [Compound 84, N-(4-AMINO-3,4-DIOXO-1-PHENYLBUTAN-2-YL)-2-METHYL-4-(2-METHYLFURAN-3-YL)OXAZOLE-5-CARBOXAMIDE] | < 3 µM | < 10 µM | 10 to 25 µM | < 3 µM | < 3 µM |  | 
Cc1cc(C(=O)NC(Cc2ccccc2)C(=O)C(N)=O)nn1-c1nccc(-c2ccccc2)n1 (stereo not drawn) [Compound 59, N-(4-AMINO-3,4-DIOXO-1-PHENYLBUTAN-2-YL)-5-METHYL-1-(4-PHENYLPYRIMIDIN-2-YL)-1H-PYRAZOLE-3-CARBOXAMIDE] | 3 to 10 µM |  |  | > 10 µM | > 10 µM | < 10 µM | > 25 µM
Cc1cc(C(=O)NC(Cc2ccccc2)C(=O)C(N)=O)n(-c2nccc(-c3ccccc3)n2)n1 (stereo not drawn) [Compound 45, N-(4-AMINO-3,4-DIOXO-1-PHENYLBUTAN-2-YL)-3-METHYL-1-(4-PHENYLPYRIMIDIN-2-YL)-1H-PYRAZOLE-5-CARBOXAMIDE] | < 3 µM |  |  | < 3 µM | < 3 µM | < 10 µM | 10 to 25 µM
